Reference: paper PMC12724174, “Biodegradation of the endocrine-disrupting compound bisphenol F by Sphingobium yanoikuyae DN12” (Applied and Environmental Microbiology, 2025)

Columns and labels:
BpfAB (BpfA1B1) = test system: T1, BpfAB (BpfA1B1); test: HPLC of residual substrate; Michaelis-Menten nonlinear fit; assay type: biochemical, Sphingobium yanoikuyae; conditions: apparent; optimal pH 8.0 and 55°C; 0.1 mM FAD, 0.2 mM phenazine methosulfate in standard assay; BpfB mostly apo
T1 construct: gene bpfA1; bpfA1B1 co-expressed from pET-29a in E. coli BL21(DE3), N-terminal His6 on BpfA (MHHHHHHPLSVAE by primer), Ni-NTA; total 663 aa; BpfB mostly apo (little heme); C-terminus of BpfB VEPKP by primer; with Cytochrome c BpfB

BpfC (BpfC1) = test system: T2, BpfC (BpfC1); test: as above; assay type: biochemical, Sphingobium yanoikuyae; conditions: apparent; optimal pH 8.5 and 40°C; 0.02 mM FAD, 0.4 mM nicotinamide adenine dinucleotide phosphate in standard assay; aerobic
T2 construct: full length, 402 aa (1,209 bp), C-terminal His6 (pET-29a), E. coli BL21(DE3), Ni-NTA; N-terminus MSGNDR and C-terminus FAESVQ-LEHHHHHH by primers

Row | Km (BpfC (BpfC1)) | Compound | Km (BpfAB (BpfA1B1))
1 |  | Oc1ccc(Cc2ccc(O)cc2)cc1 [BPF, Bisphenol F] | 19.3 ± 6.66 µM
2 | 21.3 ± 2.88 µM | O=C(c1ccc(O)cc1)c1ccc(O)cc1 [DHBP, 4,4'-dihydroxybenzophenone] | 
